Assay results taken from EP1228058B1, “BENZOPYRANYL GUANIDINE DERIVATIVES, PROCESS FOR PREPARATION THEREOF, AND PHARMACEUTICAL COMPOSITIONS CONTAINING THEM” (Dongbu Hannong Chemical Co., Ltd., priority 1999, dated 2001).

What was measured:
[1] = test system: ischemic heart models of rats; experiment: Heart protective (anti-ischemic) activity in ischemic heart models of anesthetized rats; type: in vivo; conditions: 45 min occlusion, 90 min reperfusion
Protocol: Male rats (350-450 g, obtained from the Experimental Animal Team of the Korea Research Institute of Chemical Technology) were anesthetized by the intraperitoneal injection of pentobarbital at a dose of 75 mg/kg. After trachetomy, the rats were rendered to respire artificially at a rate of 60/min with a stroke volume of 10 ml/kg. Cannulars were inserted into the fermoral vein and the fermoral artery and used for drug administration and blood pressure measurement, respectively.
In the ischemic myocardium damage models, the body temperature has an important influence on the results. To avoid the change in the body temperature, a body temperature measuring probe was inserted into the rectum of each rat and the body temperature was constantly kept at 37 °C with the aid of a homeothermic blanket control unit.
Afterwards, during testing, a continuous measurement was made of the mean arterial blood pressures and heart rates from the rats. For the measurement of the blood pressure, a pressure transducer, such as that manufactured by Grass Ins., MA, U.S.A., identified as Model Statham P23XL, was used. The heart rate was measured by a tachometer, such as that manufactured by Gould Inc., OH, U.S.A., identified as Biotachometer. In addition, all of the changes occurring were continuously recorded through the Gould 2000 chart recorder, manufactured by Gould Inc.
The left coronary artery was occluded according to the Selye H. method as follows. The rats underwent a left thoracotomy operation for partial opening of the chest and the right-side chest was pressurized by the middle finger of the left hand to push the heart out. Immediately after the left anterior descending coronary artery hereinafter referred to as (LAD) was carefully stitched using a suture needle with 5-0 silk ligature, the heart was then repositioned in the thoracic cavity while both ends of the ligature were situated outside. The opposite ligature ends were passed through a PE tube (PE100, 2.5 cm) and allowed to stand loose for 20 min for stabilization. Via the cannula inserted into the femoral vein, vehicles or drugs were administered into the rats which were rendered to stand for 30 min in order to sufficiently elicit the efficacies of the drugs. BMS-180448 was used as a control drug and the i.v.administration dose was 0.3 mg/kg for all test drugs of interest and the control drug.
Next, the PE tube which had the doubled strands of the ligature passed therethrough was pushed toward the heart and then, set upright by tightly pulling end regions of the ligature with a hemostatic pincette while pressing the coronary artery. The PE tube was allowed to stand for 45 min for the occlusion of the coronary artery, followed by the removal of the hemostatic pincette and then, by the reperfusion for 90 min.
After the reocclusion of the coronary artery in accordance with the above procedure, the rats were administered with 2 ml of a 1% Evans blue through an intravenous route. Subsequently, an excess of pentobarbital was intravenously injected to kill the rats, after which the heart was removed and then, deprived of the right ventricle and both atria. The left ventricle was cut horizontally to the heart apex into 5 or 6 slices which were weighed. From the surface of each slice, images were input with the aid of a Hi-scope into a computer installed with an image analyzing program (Image Pro Plus). From the images input into the computer, the area of the normal blood stream tissue region which appeared blue in a computer monitor and the area which appeared colorless were measured. The percentage of the colorless area to the total area of each slice was calculated and multiplied by the weight of each slice to determine the area at risk (AAR) of each slice. […]

RAW 264.7 cells = experiment: Inhibition of LPS-induced NO production (Griess reagent); type: cell-based, murine; conditions: Mus musculus, 24 hours; for inhibition at 100 µM: RAW264.7, 100 uM; for inhibition at 33 µM: RAW264.7, 33 uM
Protocol: Using RPMI1640 media supplemented with 10% fetal bovine serum (FBS), RAW 264.7 cells (obtained from American Type Culture Collection), a murine macrophage cell line, were cultured at 37 °C in a 5% CO2 incubator. The RAW264.7 cells were harvested and cell density was adjusted to 5x10^5/ml with a RPMI medium supplemented with 0.5% FBS and plated at 5x10^4 cells/well to 96-well plates, which were then cultured for 20 hr in a CO2 incubator. After removal of the media, the cells were pre-treated for 1 hour with fresh media containing 33 uM and 100 uM of test compounds. The test compounds were dissolved in DMSO and diluted to respective concentration in the media. In order to minimize DMSO effect on the nitric oxide formation by the RAW264.7 cells in the wells, the media were allowed to contain DMSO at a concentration of 0.1 % or less.
After completion of one hour pre-treatment, lipopolysaccharide (LPS, E. coli serotype 055:B5) was added to activate the cells, which were, then, maintained for 24 hours in a CO2 incubator. As a result of the activation of RAW264.7 cells with LPS, NO was formed. The NO released into the media was in a form of nitrite NO2^- and quantitatively measured using the Griess reagent. A control was treated only with vehicle instead of test compounds.
The inhibitory effects of the test compounds against NO production were determined as the reduction of NO quantity compared with that of the control group.

[2] = test system: cerebral cortical neurons; experiment: Protective activity for neurons against iron-induced death (LDH release); type: cell-based; conditions: Rattus norvegicus, Cortical neurone, FeSO4 50 uM, 24 hours, LDH reduction, read-out: % Protection
Protocol: From the brains of 17-18 day-old rat embryos, cerebral cortical neurons were isolated and then, cultured at 37 °C for 7-9 days in a 5% CO2 incubator. The cortical cell cultures were washed twice with a minimum essential medium (MEM) to reduce the serum concentration to 0.2 % and pre-treated for 30 min with 10 uM and 30 uM of each of test compounds. For the experiments, the test compounds were dissolved in DMSO and diluted in a medium. At this time, the final concentration of DMSO was not allowed to exceed 0.2 %. For a control group, only vehicle was applied.
After the pre-treatment with test compounds or vehicle, FeSO4 was added to a final concentration of 50 uM, and the cultures were maintained for 24 hours in a CO2 incubator. During incubation, lactate dehydrogenase (LDH) was released into the medium upon neuronal death by the oxidative toxicity of iron. The extent of neuronal damage was assessed by measuring the amount of LDH secreted into the media. The protective effect of the compounds of interest on neurons was evaluated by calculating the LDH reduction rate of treatment group compared with that of the control group.

COC(OC)[C@@]1(C)Oc2ccc([N+](=O)[O-])cc2[C@H](NC(=NC#N)Nc2ccccc2Cl)[C@H]1O [Example 32, (2S, 3R, 4S)-N''-cyano-N-(6-nitro-3,4-dihydro-3-hydroxy-2-methyl-2-dimethoxymethyl-2H-benzopyran-4-yl)-N'-(2-chlorophenyl)guanidine]
Anti-ischemic Activity (in vivo, rats) (0.3 mg/kg i.v.) IZ/AAR (%) [1]: 44.72% | inhibition at 100 µM (RAW 264.7 cells): 83%

COC(OC)[C@@]1(C)Oc2ccc([N+](=O)[O-])cc2[C@H](NC(=NC#N)NCc2ccccc2)[C@H]1O [Example 24, (2S, 3R, 4S)-N''-cyano-N-(6-nitro-3,4-dihydro-3-hydroxy-2-methyl-2-dimethoxymethyl-2H-benzopyran-4-yl)-N'-benzylguanidine]
Anti-ischemic Activity (in vivo, rats) (0.3 mg/kg i.v.) IZ/AAR (%) [1]: 48.48% | inhibition at 10 µM [2]: 29% | inhibition at 30 µM [2]: 47% | inhibition at 33 µM (RAW 264.7 cells): 16% | inhibition at 100 µM (RAW 264.7 cells): 48%

COC(OC)[C@@]1(C)Oc2ccc([N+](=O)[O-])cc2[C@@H](NC(=NC#N)NCc2ccccc2)[C@@H]1OC(C)=O [Example 38, (2S, 3S, 4R)-N''-cyano-N-(6-nitro-3,4-dihydro-3-acetoxy-2-methyl-2-dimethoxymethyl-2H-benzopyran-4-yl)-N'-benzylguanidine]
Anti-ischemic Activity (in vivo, rats) (0.3 mg/kg i.v.) IZ/AAR (%) [1]: 51.13% | inhibition at 10 µM [2]: 56% | inhibition at 30 µM [2]: 78% | inhibition at 33 µM (RAW 264.7 cells): 56% | inhibition at 100 µM (RAW 264.7 cells): 85%

COC(OC)[C@@]1(C)Oc2ccc(N)cc2[C@@H](NC(=NC#N)NCc2ccccc2)[C@@H]1O [Example 40, (2S, 3S, 4R)-N''-cyano-N-(6 - amino-3,4-dihydro-3-hydroxy-2-methyl-2-dimethoxymethyl-2H-benzopyran-4-yl)-N'-benzylguanidine]
Anti-ischemic Activity (in vivo, rats) (0.3 mg/kg i.v.) IZ/AAR (%) [1]: 30.25% | inhibition at 10 µM [2]: 45% | inhibition at 30 µM [2]: 97% | inhibition at 100 µM (RAW 264.7 cells): 26%

COC(OC)[C@@]1(C)Oc2ccc([N+](=O)[O-])cc2[C@@H](NC(=NC#N)NCc2ccccc2)[C@@H]1O [Example 25, (2S, 3S, 4R)-N''-cyano-N-(6-nitro-3,4-dihydro-3-hydroxy-2-methyl-2-dimethoxymethyl-2H-benzopyran-4-yl)-N'-benzylguanidine]
Anti-ischemic Activity (in vivo, rats) (0.3 mg/kg i.v.) IZ/AAR (%) [1]: 48.55% | inhibition at 30 µM [2]: 69% | inhibition at 33 µM (RAW 264.7 cells): 39% | inhibition at 100 µM (RAW 264.7 cells): 54%
